Data taken from patent US9260448B2, “Thienopyrimidinone derivatives as mGluR1 antagonists” (KOREA INSTITUTE OF SCIENCE AND TECHNOLOGY, priority 2013, dated 2016).

Molecular target: mGluR1 (Homo sapiens, UniProt Q13255)
Assay: mGluR1 activity screening using FDSS6000 (intracellular calcium, L-Glutamate stimulation)
Format: cell-based
Details: Chem3 Cell Line (HTS145C:Millipore) stably expressing mGluR1, L-Glutamate 30 μM, Ca2+ fluorescent dye, read-out: IC50 (nM) against mGluR1
Method: mGluR1 Activity Screening Method Using FDSS6000
Cells of Chem3 Cell Line (HTS145C:Millipore) in which mGluR1 was stably expressed were adjusted to a density of 2×10^6/ml. 50 μl of the cells were plated in each well of a 96-well plate, and stabilized at 5% CO2 and 37° C. for 1 hr. The cells were allowed to react with an HBSS buffer containing a Ca^2+ fluorescent dye (FLIPR Calcium 5 assay kit: Molecular Devices) under the conditions of 5% CO2 and 37° C. for 30 min. As a result of the reaction, the cells were labeled with the fluorescent dye. Separately from the 96-well plate containing the fluorescently labeled cells, another 96-well plate was prepared that contained L-Glutamate (final concentration=30 μM) activating mGluR1 and a blocking drug to be screened. Most cell-based HTS systems have liquid application systems necessary for drug injection but no liquid inhalation systems. For this reason, 25 μl of each of the blocking drug and L-Glutamate was prepared at a 6-fold higher concentration in an HBSS buffer and diluted 6-fold in the final volume […] of the cell plate before measurement. Specifically, after drug pretreatment for 75 sec following recording the reference value at 20 sec, a change in intracellular calcium concentration caused by L-glutamate administration was measured using FDSS6000. The inhibitory effect of the test substance was expressed as a percent (%) relative to the area of the 480 nm/520 nm ratio in a control group untreated with the test substance. 10 μM PCTC20001 was always used as the control drug.
For detailed imaging of calcium, the cells were selectively exposed to an excitation wavelength (480 nm) from four xenon light sources mounted in FDSS6000 through a computer-controlled filter wheel. Data were recorded at 1.23-sec intervals. Emitter fluorescence light entering through a 520 nm long-pass filter was allowed to pass through a cooled CCD camera mounted in the system. An average 480 nm/520 nm ratio was obtained in each well of the 96-well plate using a digital fluorescence analyzer. All imaging data were collected and analyzed with the help of a dedicated program for FDSS6000 (Hamamatsu Photonics).
Measurement of IC50 Values Against mGluR1
The IC50 values (nM) of the novel compounds of Formula 1 according to the present invention against mGluR1 are shown in Table 1.

Chain of mGluR1 (Q13255 19-1194): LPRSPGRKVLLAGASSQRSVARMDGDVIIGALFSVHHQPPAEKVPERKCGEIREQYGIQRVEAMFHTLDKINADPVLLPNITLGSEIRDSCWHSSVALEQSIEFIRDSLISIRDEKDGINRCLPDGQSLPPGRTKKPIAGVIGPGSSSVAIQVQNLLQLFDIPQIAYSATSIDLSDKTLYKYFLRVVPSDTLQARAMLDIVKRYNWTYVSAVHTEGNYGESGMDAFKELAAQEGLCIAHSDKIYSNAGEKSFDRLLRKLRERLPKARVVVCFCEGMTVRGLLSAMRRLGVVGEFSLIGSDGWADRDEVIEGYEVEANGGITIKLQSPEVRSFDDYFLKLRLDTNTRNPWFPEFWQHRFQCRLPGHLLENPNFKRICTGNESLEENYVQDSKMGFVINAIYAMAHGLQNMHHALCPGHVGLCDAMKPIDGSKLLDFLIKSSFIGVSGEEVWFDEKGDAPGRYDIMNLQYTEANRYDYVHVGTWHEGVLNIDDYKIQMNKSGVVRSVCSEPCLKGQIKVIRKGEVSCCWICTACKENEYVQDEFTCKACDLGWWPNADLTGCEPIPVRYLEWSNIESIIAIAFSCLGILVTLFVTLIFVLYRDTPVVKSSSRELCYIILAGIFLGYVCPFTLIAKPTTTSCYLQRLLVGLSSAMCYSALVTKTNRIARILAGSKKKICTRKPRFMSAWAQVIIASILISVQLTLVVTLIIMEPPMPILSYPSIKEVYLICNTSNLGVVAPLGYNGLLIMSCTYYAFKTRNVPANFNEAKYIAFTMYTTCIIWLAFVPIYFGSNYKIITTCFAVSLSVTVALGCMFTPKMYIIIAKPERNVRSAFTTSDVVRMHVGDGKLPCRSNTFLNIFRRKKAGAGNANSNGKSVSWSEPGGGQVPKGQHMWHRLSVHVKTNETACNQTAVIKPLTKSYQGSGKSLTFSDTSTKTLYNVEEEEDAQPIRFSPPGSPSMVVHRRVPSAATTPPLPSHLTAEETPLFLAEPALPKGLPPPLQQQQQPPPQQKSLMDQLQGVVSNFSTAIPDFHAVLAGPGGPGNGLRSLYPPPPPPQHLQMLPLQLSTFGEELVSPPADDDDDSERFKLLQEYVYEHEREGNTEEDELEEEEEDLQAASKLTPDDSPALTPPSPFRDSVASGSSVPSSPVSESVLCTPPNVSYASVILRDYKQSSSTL

Compound | IC50 [nM]
C=Cc1cccc(-n2cnc3c(-c4ccccc4)csc3c2=O)c1 [Compound 29, 7-Phenyl-3-(3-vinylphenyl)thieno[3,2-d]-pyrimidin-4(3H)-one] | 74
O=c1c2scc(-c3ccccc3F)c2ncn1-c1ccc(Cl)cc1 [Compound 32, 3-(4-Chlorophenyl)-7-(2-fluorophenyl)thieno[3,2-d]pyrimidin-4(3H)-one] | 30
COc1ccc(-n2c(C)nc3c(-c4ccccc4)csc3c2=O)cc1 [Compound 74, 3-(4-Methoxyphenyl)-2-methyl-7-phenylthieno[3,2-d]pyrimidin-4(3H)-one] | 564
O=c1c2scc(-c3ccccc3)c2ncn1-c1ccc(Cl)cc1 [Compound 7, 3-(4-Chlorophenyl)-7-phenylthieno[3,2-d]pyrimidin-4(3H)-one] | 66
Cc1ccc(-c2csc3c(=O)n(-c4ccc(Cl)cc4)cnc23)cc1 [Compound 58, 3-(4-Chlorophenyl)-7-(p-tolyl)thieno[3,2-d]pyrimidin-4(3H)-one] | 80
O=c1c2scc(-c3ccccc3)c2ncn1-c1ccccc1F [Compound 2, 3-(2-Fluorophenyl)-7-phenylthieno[3,2-d]pyrimidin-4(3H)-one] | 407
O=c1c2scc(-c3ccc4c(c3)OCO4)c2ncn1-c1ccc(Cl)cc1 [Compound 68, 7-(Benzo[d][1,3]dioxol-5-yl)-3-(4-chlorophenyl)thieno[3,2-d]pyrimidin-4(3H)-one] | 447
O=c1c2scc(-c3ccccc3)c2ncn1-c1cccc(Cl)c1 [Compound 6, 3-(3-Chlorophenyl)-7-phenylthieno[3,2-d]pyrimidin-4(3H)-one] | 58
COc1ccc(-n2cnc3c(-c4ccc(C)cc4)csc3c2=O)cc1 [Compound 59, 3-(4-Methoxyphenyl)-7-(p-tolyl)thieno[3,2-d]pyrimidin-4(3H)-one] | 661
Cc1ccc(-n2cnc3c(-c4ccccc4)csc3c2=O)cc1 [Compound 18, 7-Phenyl-3-p-tolylthieno[3,2-d]pyrimidin-4(3H)-one] | 112
COc1ccc(-n2cnc3c(-c4ccc5c(c4)OCO5)csc3c2=O)cc1 [Compound 69, 7-(Benzo[d][1,3]dioxol-5-yl)-3-(4-methoxyphenyl)thieno[3,2-d]pyrimidin-4(3H)-one] | 1990
